Patent US12447213B2, “Modulation of novel immune checkpoint targets” (The Brigham and Women's Hospital, Inc., priority 2016, dated 2025)

Experiments:
Factor VII = settings: LNP siRNA systems containing these lipids; cited from earlier work
Th17 cells [1] = test: Th17 differentiation in the presence of plate bound integrin αvβ3, cytokine production by FACS; assay type: cell-based, mice; settings: 10 ug/ml, BSA as control
Protocol: FIG. 40. […] Anti-CD3/CD28 beads are used at a ratio of 1:1. Naïve T cells were differentiated into pathogenic or non-pathogenic Th17 cells in vitro with anti-CD3/CD28 Dynabeads (Thermo Fisher Scientific) in the presence of plate bound integrin avb3 (10 ug/ml) or BSA (10 ug/ml) as control. Cytokine production from Th17 cells were measured by FACS on day 4.
Role of Gp49 Ligand Integrin αvβ3. Integrin αvβ3 is a known ligand of ILT-3 that induces human mast cell degranulation in a Gp49b dependent way. To determine the expression pattern of integrin αvβ3, FACs analysis was performed on various immune cell subsets. CD4^+CD44^loCD62L^hi naïve CD4 T cells were sorted by FACS and cultured in vitro with plate-bound anti-CD3 (2 ug/ml) and anti-CD28 (2 ug/ml) plus the following polarizing cytokines: IL12 (20 ng/ml) for Th1 cells; IL4 (20 ng/ml) for Th2 cells; TGFb (5 ng/ml) for iTreg cells; IL27 (25 ng/ml) for Tr1 cells; TGFb (2 ng/ml) and IL6 (25 ng/ml) for non-pathogenic Th17; IL1 (20 ng/ml), IL6 (25 ng/ml) and IL23 (20 ng/ml) for pathogenic Th17. Expression of αv and β3 integrin were analyzed by FACS and qPCR on day 4. […] Stained cells were analyzed by FACS. […] Stained cells were analyzed by FACS. […] Next, the effect of plate-bound integrin was determined. […] Cytokine production from Th17 cells was measured by FACS on day 4.

Th17 cells [2] = test: Binding of recombinant His-tagged integrin αvβ3 to Th17 cells (FACS); design: species or system mice; settings: pathogenic and non-pathogenic Th17
Protocol: FIG. 38. Integrin avb3 doesn't bind to Th17 cells (in Hank's balanced salt solution ((HBSS)) in the presence of Ca2+ and Mg2+. In vitro differentiated pathogenic and non-pathogenic Th17 cells were incubated with recombinant His-tagged integrin avb3 in HBSS buffer at room temperature for 30 min, washed twice, and then incubated with anti-His antibody for 10 min. Stained cells were analyzed by FACS.
FIG. 39. Integrin avb3 doesn't bind to Th17 cells (in phosphate buffered saline ((PBS)) in the absence of Ca2+ and Mg2+. In vitro differentiated pathogenic and non-pathogenic Th17 cells were incubated with recombinant His-tagged integrin αvβ3 in PBS buffer at room temperature for 30 min, washed twice, and then incubated with anti-His antibody for 10 min. Stained cells were analyzed by FACS.
Role of Gp49 Ligand Integrin αvβ3. Integrin αvβ3 is a known ligand of ILT-3 that induces human mast cell degranulation in a Gp49b dependent way. To determine the expression pattern of integrin αvβ3, FACs analysis was performed on various immune cell subsets. […] Expression of αv and β3 integrin were analyzed by FACS and qPCR on day 4. […] Stained cells were analyzed by FACS. […] Stained cells were analyzed by FACS. […] Next, the effect of plate-bound integrin was determined. […] Cytokine production from Th17 cells was measured by FACS on day 4.

naïve CD4 T cells = test: Gp49 expression on naïve CD4 T cells cultured with polarizing cytokines (FACS day 3); assay type: cell-based, mice; settings: plate-bound anti-CD3/anti-CD28 plus polarizing cytokines
[3] = tested on: naïve CD4+ and CD8+ T cells; test: In vitro T-cell differentiation with IL-27: co-inhibitory receptor expression by real-time PCR and flow cytometry; assay type: cell-based, mice
Source text: FIG. 1A-1M. illustrates that IL-27 induces multiple co-inhibitory receptors on CD4^+ and CD8^+ T cells. CD4^+ and CD8^+ tumor-infiltrating lymphocytes (TILs) harvested from wild type (WT) mice bearing B16F10 melanoma tumors. FIG. 1A) Naïve T cells from either WT or IL-27ra deficient mice (IL27ra KO) were stimulated with anti-CD3/CD28 in the presence or absence of IL-27 as indicated. Expression of the indicated co-inhibitory molecules was examined by real-time PCR at 96 hr (CD4) and 72 hr (CD8), n≥3, error bars indicate s.e.m. FIG. 1B) Surface expression of co-inhibitory receptors on T cells stimulated as in (A) was determined by flow cytometry. Representative data are shown. FIG. 1C) Co-expression analysis of co-inhibitory and co-stimulatory receptor mRNA expression as determined by single cell RNAseq (316 and 516 for CD4^+ and CD8^+ respectively). For visualization purposes negative correlation values were set to zero. FIG. 1D) Protein expression by CyTOF for 23,656 CD4^+ and 36,486 CD8^+ TILs. Co-expression was analyzed using Spearman correlation. For visualization purposes negative correlation values were set to zero. FIG. 1E) TILs were harvested from WT and IL27ra KO mice bearing B16F10 melanoma and analyzed using CyTOF. CyTOF data were analyzed using vi-SNE. Polygons indicating clusters 1, 2 (in CD8^+ T cells), 3 and 4 (in CD4^+ T cells) are shown. FIG. 1F) The within groups sum of squared error (SSE) plot. […] FIG. 1G) Gap statistics for estimating the optimal number of clusters using k-means from 1 up to 12 clusters using bootstrapping and first SE max method. […] Visualization of cluster distribution using two-dimensional non-linear embedding of the protein expression profiles by t-SNE. FIG. 1I) CyTOF expression analysis of co-inhibitory and co-stimulatory receptors in TILs harvested from B16F10 melanoma tumor-bearing WT and […] mice from FIG. 1A and FIG. 1J using t-SNE. FIG. 1J) vi-SNE plot highlighting the distribution of CD8^+ TILs from WT (red) and IL27ra KO (blue) mice in clusters 1 and 2 and CD4^+ TILs from WT (red) and IL27ra KO (blue) mice in clusters 3 and 4. Pie charts show the distribution of WT or IL27ra KO CD8^+ and CD4^+ TILs in each cluster. Bar graphs show the mean of signal intensity for PD-1, Tim-3, Lag-3, and TIGIT from WT and IL27ra KO TILs. Error bars are the standard error and p-values for significance are calculated using standard t-test (**p<0.01). FIG. 1K) Expression of PD-1, Tim-3, Lag-3, TIGIT, and IL-10 on CD8^+ TILs obtained from WT and IL27ra KO mice bearing B16F10 melanoma was determined by flow cytometry. Thy1.1-IL-10 reporter mice crossed with WT and IL27ra KO mice were used for IL-10 expression analysis. FIG. 1L, FIG. 1M) Impact of IL-27 signaling on co-inhibitory receptor expression in TILs. Pie charts show the distribution of CD8^+ and CD4^+ TILs from WT and IL27ra KO mice bearing B16F10 melanoma between clusters 1 and 2 for CD8^+ and between clusters 3 and 4 for CD4^+ TILs as determined by k-means clustering of CyTOF protein expression data.
Flow cytometry: Single cell suspensions were stained with antibodies against CD4 (RM4-5), CD8 (53-6.7), PD-1 (RMP1-30), Lag-3 (C9B7W), TIGIT (GIGD7), and Tim-3 (5D12), Procr (eBio1560), and Pdpn (8.1.1) and were obtained from BioLegend (San Diego, Calif.). Fixable viability dye eF506 (eBioscience) was used to exclude dead cells. For intra-cytoplasmic cytokine staining, cells were stimulated with (PMA) (50 ng/ml, Sigma-Aldrich, MO), ionomycin (1 μg/ml, Sigma-Aldrich, MO). Permeabilized cells were then stained with antibodies against IL-2, TNF-α, IFN-γ or IL-10. All data were collected on a BD LSR II (BD Biosciences) and analyzed with FlowJo software (Tree Star).
In vitro T-cell differentiation: CD4^+ and CD8^+ T cells were purified from spleen and lymph nodes using anti-CD4 microbeads (Miltenyi Biotech) then stained in PBS with 0.5% BSA for 15 min on ice with anti-CD4, anti-CD8, anti-CD62L, and anti-CD44 antibodies (all from Biolegend, CA). […]

[4] = activation of naïve CD4+ and CD8+ T cells in vitro in the presence of IL-27
[5] = anti-CD3/CD28 in the presence of IL-27, CD4+ and CD8+ T cells

1,2-dilinoleyloxy-keto-N,N-dimethyl-3-aminopropane [DLinKDMA]
gene silencing potency series (Factor VII): DLinKC2-DMA>DLinKDMA>DLinDMA>>DLinDAP

CCCCC/C=C\C/C=C\CCCCCCCC(=O)OCC(CN(C)C)OC(=O)CCCCCCC/C=C\C/C=C\CCCCC (centres unmarked) [DLinDAP, 1,2-dilineoyl-3-dimethylammonium-propane]
gene silencing potency series (Factor VII): DLinKC2-DMA>DLinKDMA>DLinDMA>>DLinDAP

CCCCC/C=C\C/C=C\CCCCCCCCOCC(CN(C)C)OCCCCCCCC/C=C\C/C=C\CCCCC (centres unmarked) [DLinDMA, 1,2-dilinoleyloxy-3-N,N-dimethylaminopropane]
gene silencing potency series (Factor VII): DLinKC2-DMA>DLinKDMA>DLinDMA>>DLinDAP

CCCCC/C=C\C/C=C\CCCCCCCCC1(CCCCCCCC/C=C\C/C=C\CCCCC)OCC(CCN(C)C)O1 (centres unmarked) [DLinKC2-DMA, 1,2-dilinoleyl-4-(2-dimethylaminoethyl)-[1,3]-dioxolane]
gene silencing potency series (Factor VII): DLinKC2-DMA>DLinKDMA>DLinDMA>>DLinDAP

Integrin αvβ3: recombinant His-tagged integrin αvβ3, a known ligand of ILT-3
effect on Th17 cells (cytokine production, FACS day 4) (Th17 cells [1]): does not appear to have much effect | binding to Th17 cells (Th17 cells [2]; HBSS, in the presence of Ca2+ and Mg2+): doesn't bind | binding to Th17 cells (Th17 cells [2]; PBS, in the absence of Ca2+ and Mg2+): doesn't bind

TGFb
Gp49 expression (naïve CD4 T cells): inhibited

B1: IL-27: heterodimeric cytokine, member of the IL-12 family; rmIL-27 (25 ng/ml) (eBioscience) used in vitro (protein)
chain 1: FPTDPLSLQELRREFTVSLYLARKLLSEVQGYVHSFAESRLPGVNLDLLPLGYHLPNVSLTFQAWHHLSDSERLCFLATTLRPFPAMLGGLGTQGTWTSSEREQLWAMRLDLRDLHRHLRFQVLAAGFKCSKEEEDKEEEEEEEEEEKKLPLGALGGPNQVSSQVSWPQLLYTYQLLHSLELVLSRAVRDLLLLSLPRRPGSAWDS
chain 2: YTETALVALSQPRVQCHASRYPVAVDCSWTPLQAPNSTRSTSFIATYRLGVATQQQSQPCLQRSPQASRCTIPDVHLFSTVPYMLNVTAVHPGGASSSLLAFVAERIIKPDPPEGVRLRTAGQRLQVLWHPPASWPFPDIFSLKYRLRYRRRGASHFRQVGPIEATTFTLRNSKPHAKYCIQVSAQDLTDYGKPSDWSLPGQVESAPHKP
Pdpn expression by qPCR and flow cytometry [3, 4]: induced | Procr expression by qPCR and flow cytometry [3, 4]: induced | Lag-3 expression, mRNA and protein level [3, 5]: induced | TIGIT expression, mRNA and protein level [3, 5]: induced | Tim-3 (Havcr2) expression, mRNA and protein level [3, 5]: induced | PD-1 (Pdcd1) expression ([3]; in vitro, anti-CD3/CD28 in the presence of IL-27): not affected
